Reference: patent US12285434B2, “Therapeutic, preventive, or improvement agent for inflammatory disease and allergic disease” (The University of Tokyo, priority 2018, dated 2025)

Experiments:
[1] = tested on: NO production in HUVECs; experiment: Histamine-induced NO production (nitrite and nitrate); format: cell-based, human; conditions: pretreatment 0.1 μM, 15 minutes; histamine 10 μM
Method: In Examples 4 to 6, human umbilical vein endothelial cells (hereinafter, sometimes referred to as “HUVECs”, manufactured by Lonza) were cultured in EGM-2 (manufactured by Lonza K.K.). These cells (passages 4 to 9) were used for experiments after 4-hour starvation in EBM-2 (manufactured by Lonza K.K.) containing 2% FBS.
The HUVECs were washed three times with HEPES and incubated in HEPES supplemented with 1 mM L-arginine and 10 μM tetrahydrobiopterin. After equilibration for 30 minutes, the medium was exchanged, and the cells were incubated for additional 30 minutes. […] The conditioned media before and after the stimulation (100 μL each) were collected and centrifuged in each amount of 300 g for 3 minutes. The supernatants were collected, and used to measure nitrite and nitrate, as stable metabolites of NO, by an ENO-20 NOx analyzer (manufactured by Eicom Corporation). The degrees of increases of nitrite and nitrate levels after the stimulation were normalized with cellular protein contents.

[2] = tested on: DSS-induced colitis model mice; experiment: DSS-induced colitis: colitis severity (body weight, fecal score, colon length); format: in vivo, mouse (C57BL/6); conditions: Day 14; 50 μg/kg/day intraperitoneally on Days 9, 11 and 13
Description: C57BL/6 strain mice (male, 8 to 12 weeks old) were fed with water containing 2% dextran sodium sulfate (manufactured by MP Bio, hereinafter sometimes referred to as “DSS”) for 4 days to prepare colitis model mice (hereinafter, sometimes referred to as “colitis group” in Examples 7 to 10). The mice taken with DSS for 4 days were fed with normal water from Day 5. The DSS intake start date was defined as Day 1 of the test, and the day before the DSS intake start date was defined as Day 0 of the test. In addition, a group in which C57BL/6 strain mice (male, 8 to 12 weeks old) were fed with normal water was defined as a “healthy group” (the same applies to Examples 8 to 10).
In order to evaluate colitis severity, the fecal condition was evaluated and the body weight was measured daily for the colitis model mice and healthy group prepared in the above item (1). The fecal condition was evaluated based on the following five-grade fecal scores. Specifically, the fecal scores were 0: normal; 1: soft but still formed; 2: very soft; 3: diarrhea; and 4: bloody feces. In addition, the colon length was measured as an index of the colitis severity.
To investigate the role of 5,6-DiHETE in the healing phase, the colitis model mice prepared in Example 7(1) were intraperitoneally injected with 5,6-DiHETE (manufactured by Cayman Chemical) (50 μg/kg/day) or HC-067047 (manufactured by Cayman Chemical) (1 mg/kg/day) on Days 9, 11 and 13 of the test (hereinafter, sometimes referred to as “5,6-DiHETE-administered group” and “HC-067047-administered group,” respectively, in Examples 9 and 10). HC-067047 is known to inhibit an increase of calcium ion concentration in endothelial cells.
The colitis severity was determined according to the index and criteria described in Example 7(2).

[3] = tested on: mouse aortae; experiment: Measurement of vascular contraction of aorta (aortic ring specimens)
Method: After excision of the thoracic aortae from untreated mice and removal of fat and connective tissue, the aortae were cut into rings to prepare aortic ring specimens. The ring specimens were immersed in a liquid tank filled with a normal nutrient solution (physiological saline solution containing 136.9 mM NaCl, 5.4 mM KCl, 5.5 mM glucose, 23.8 mM NaHCO3, 1.5 mM CaCl2, 1.0 mM MgCl2 and 0.01 mM EDTA), and two stainless hooks were penetrated through the lumens of the ring specimens. One end of each of the stainless hooks was fixed, and the other end thereof was connected to a force-displacement transducer (T7-30-240, manufactured by Orientec Co., Ltd.) connected to a strain amplifier (3134 strain AMPL, manufactured by Yokogawa Test & Measurement Corporation). Then, the following operation (a), (b) or (c) was performed.
(a) Norepinephrine (manufactured by Sigma) was cumulatively added into the liquid tank containing the ring specimens after stabilization of each contraction (every about 30 minutes) so as to attain 0.001 μM, 0.01 μM, 0.1 μM and 1 μM, and this group was designated as a “norepinephrine-administered group” (n=4) (FIG. 3A). 5,6-DiHETE was cumulatively added into the liquid tank containing the ring specimen after stabilization of each contraction (every about 30 minutes) so as to attain 0.001 μM, 0.01 μM, 0.1 μM and 1 μM, and this group was designated as a “5,6-DiHETE-administered group” (n=4) (FIG. 3A).
(b) Norepinephrine was added into the liquid tank containing the ring specimens so as to attain 0.3 μM, and precontraction was induced by administration of norepinephrine (FIG. 3B). Then, after the contraction by the administration of norepinephrine was stabilized, acetylcholine (manufactured by Sigma) was cumulatively added after stabilization of each relaxation reaction (every about 15 minutes) so as to attain 0.03 μM, 0.1 μM, 0.3 μM and 1 μM, and this group was designated as an “acetylcholine-administered group” (FIG. 3B). After the contraction by the administration of norepinephrine was stabilized, 5,6-DiHETE was cumulatively added every about 15 minutes so as to attain 0.001 μM, 0.01 μM, 0.1 μM and 1 μM, and this group was designated as a “5,6-DiHETE-administered group” (n=4) (FIG. 3B).
(c) In order to verify the effect of 5,6-DiHETE on the acetylcholine administration, norepinephrine was added into the liquid tank containing the ring specimens so as to attain 1 μM. After the contraction by the administration of norepinephrine was stabilized, 5,6-DiHETE or a vehicle (solvent alone) was added so as to attain 1 μM. […]
In the above operations (a) to (c), tension (contractile force) generated in the aortic ring specimens was measured isometrically over time using the above force-displacement transducer under a resting tension of 3 mN, and recorded.

CC/C=C\C/C=C\C/C=C\C/C=C\C[C@@H](O)[C@@H](O)CCCC(=O)O (racemic) [5,6-DiHETE, (±) 5,6-dihydroxy-8Z,11Z,14Z,17Z-eicosatetraenoic acid]
histamine-induced NO production [1]: 0.11±0.06 pmol/μg protein
colon length [2]: 6.4±0.1 cm
fecal score [2]: decreased to the normal level
relative body weight, of the initial weight [2]: 115.2±2.5%
acetylcholine-induced aortic relaxation vs vehicle-administered group ([3]; 1 μM pretreatment, precontraction 1 μM norepinephrine, acetylcholine 0.03-1 μM): significantly attenuated
contraction of aorta ([3]; cumulative addition 0.001, 0.01, 0.1 and 1 μM): no contraction was caused
effect on aorta precontracted by norepinephrine ([3]; precontraction 0.3 μM norepinephrine, cumulative 0.001, 0.01, 0.1 and 1 μM): did not affect the precontraction by norepinephrine
